Measurements taken from patent US8222404B2, “[1,2,4]Thiadiazin-3-yl acetic acid compound and methods of making the acetic acid compound” (Anadys Pharmaceuticals, Inc., priority 2008, dated 2012).

system: HCV Huh-luc/neo-ET replicon cells; assay: Luciferase-Based HCV Replicon Assay (EC50 (1b)); assay type: cell-based; conditions: Hepatitis C virus, 72 hours exposure, luciferase activity
Experimental: Luciferase-Based HCV Replicon Assay Protocol (EC50 (1b))
The cell culture component of the assay was performed essentially as described by Bartenschlager et al., Hepatology 2002, 35, 694-703, wherein exponentially growing HCV Huh-luc/neo-ET replicon cells were seeded at 6×10^3 cells/well in 96 well assay plate. 24 hours later the cells were treated with various concentrations of compound in triplicate. After 72 hours exposure to the compound, the luciferase activity in the wells was determined using Bright-Glo reagent (Promega, Madison, Wis.) with a luminometer (Wallac 1420 Multilabel HTS Counter Victor 2). The background control was replicon cells treated with 100 nM BILN-2061, an inhibitor of the HCV protease. % Inhibition was determined for each compound concentration in relation to the negative (no compound) control to calculate the EC50 (1b).

SMILES	EC50
COc1ccc(CN2C(=O)C(C3=NS(=O)(=O)c4c(CNS(C)(=O)=O)csc4N3)=C(O)C3CCCCCC32)c(OC)c1 (racemic) [Example 79, (rac-cis)-N-{3-[1-(2,4-Dimethoxy-benzyl)-4-hydroxy-2-oxo-2,4a,5,6,7,8,9,9a-octahydro-1H-cyclohepta[b]pyridin-3-yl]-1,1-dioxo-1,4-dihydro-1λ^6-thieno[2,3-e][1,2,4]thiadiazin-7-ylmethyl}-methanesulfonamide]	> 1 µM
CS(=O)(=O)NCc1csc2c1S(=O)(=O)N=C(C1=C(O)C3C4CCC(O4)C3NC1=O)N2 (racemic) [Example 83, (rac-di-exo)-N-[3-(6-Hydroxy-4-oxo-11-oxa-3-aza-tricyclo[6.2.1.0^2,7]undec-5-en-5-yl)-1,1-dioxo-1,4-dihydro-1λ^6-thieno[2,3-e][1,2,4]thiadiazin-7-ylmethyl]-methanesulfonamide]	> 1 µM
CS(=O)(=O)NCc1csc2c1S(=O)(=O)N=C(C1=C(O)C3C4C=CC(C4)C3NC1=O)N2 (racemic) [Example 84, (rac-di-exo)-N-[3-(6-Hydroxy-4-oxo-3-aza-tricyclo[6.2.1.0^2,7]undeca-5,9-dien-5-yl)-1,1-dioxo-1,4-dihydro-1λ^6-thieno[2,3-e][1,2,4]thiadiazin-7-ylmethyl]-methanesulfonamide]	> 1 µM
CS(=O)(=O)NCc1csc2c1S(=O)(=O)N=C(C1=C(O)C3CCCCC3NC1=O)N2 (racemic) [Example 86, (rac-cis)-N-[3-(4-Hydroxy-2-oxo-1,2,4a,5,6,7,8,8a-octahydro-quinolin-3-yl)-1,1-dioxo-1,4-dihydro-1λ^6-thieno[2,3-e][1,2,4]thiadiazin-7-ylmethyl]-methanesulfonamide]	> 1 µM
CS(=O)(=O)NCc1csc2c1S(=O)(=O)N=C(C1=C(O)C3CCCCCC3NC1=O)N2 (racemic) [Example 87, (rac-cis)-N-[3-(4-Hydroxy-2-oxo-2,4a,5,6,7,8,9,9a-octahydro-1H-cyclohepta[b]pyridin-3-yl)-1,1-dioxo-1,4-dihydro-1λ^6-thieno[2,3-e][1,2,4]thiadiazin-7-ylmethyl]-methanesulfonamide]	> 1 µM
CS(=O)(=O)NCc1csc2c1S(=O)(=O)N=C(C1=C(O)C3C4CCC(O4)C3N(Cc3ccc(F)cc3)C1=O)N2 (racemic) [Example 90, (rac-di-exo)-N-{3-[3-(4-Fluoro-benzyl)-6-hydroxy-4-oxo-11-oxa-3-aza-tricyclo[6.2.1.0^2,7]undec-5-en-5-yl]-1,1-dioxo-1,4-dihydro-1λ^6-thieno[2,3-e][1,2,4]thiadiazin-7-ylmethyl}-methanesulfonamide]	0.005 to 0.02 µM
CS(=O)(=O)NCc1csc2c1S(=O)(=O)N=C(C1=C(O)C3CCCCC3N(C3CCCCC3)C1=O)N2 (racemic) [Example 100, (rac-cis)-N-[3-(1-Cyclohexyl-4-hydroxy-2-oxo-1,2,4a,5,6,7,8,8a-octahydro-quinolin-3-yl)-1,1-dioxo-1,4-dihydro-1λ^6-thieno[2,3-e][1,2,4]thiadiazin-7-ylmethyl]-methanesulfonamide]	0.1 to 1 µM
CS(=O)(=O)NCc1csc2c1S(=O)(=O)N=C(C1=C(O)C3CCCCC3N(CC3CCCCC3)C1=O)N2 (racemic) [Example 104, (rac-cis)-N-[3-(1-Cyclohexylmethyl-4-hydroxy-2-oxo-1,2,4a,5,6,7,8,8a-octahydro-quinolin-3-yl)-1,1-dioxo-1,4-dihydro-1λ^6-thieno[2,3-e][1,2,4]thiadiazin-7-ylmethyl]-methanesulfonamide]	0.1 to 1 µM
CS(=O)(=O)NCc1csc2c1S(=O)(=O)N=C(C1=C(O)C3CCCCCC3N(CC3CCCCC3)C1=O)N2 (racemic) [Example 105, (rac-cis)-N-[3-(1-Cyclohexylmethyl-4-hydroxy-2-oxo-2,4a,5,6,7,8,9,9a-octahydro-1H-cyclohepta[b]pyridin-3-yl)-1,1-dioxo-1,4-dihydro-1λ^6-thieno[2,3-e][1,2,4]thiadiazin-7-ylmethyl]-methanesulfonamide]	0.1 to 1 µM
CS(=O)(=O)NCc1csc2c1S(=O)(=O)N=C(C1=C(O)C3CCCCC3N(Cc3ccc(F)cc3)C1=O)N2 (racemic) [Example 116, (rac-cis)-N-{3-[1-(4-Fluoro-benzyl)-4-hydroxy-2-oxo-1,2,4a,5,6,7,8,8a-octahydro-quinolin-3-yl]-1,1-dioxo-1,4-dihydro-1λ^6-thieno[2,3-e][1,2,4]thiadiazin-7-ylmethyl}-methanesulfonamide]	0.02 to 0.1 µM
CS(=O)(=O)NCc1csc2c1S(=O)(=O)N=C(C1=C(O)C3CCCCC3N(Cc3ccc(F)cc3Cl)C1=O)N2 (racemic) [Example 117, (rac-cis)-N-{3-[1-(2-Chloro-4-fluoro-benzyl)-4-hydroxy-2-oxo-1,2,4a,5,6,7,8,8a-octahydro-quinolin-3-yl]-1,1-dioxo-1,4-dihydro-1λ^6-thieno[2,3-e][1,2,4]thiadiazin-7-ylmethyl}-methanesulfonamide]	0.1 to 1 µM
CS(=O)(=O)NCc1csc2c1S(=O)(=O)N=C(C1=C(O)C3CCCCC3N(Cc3ccc(F)cc3F)C1=O)N2 (racemic) [Example 118, (rac-cis)-N-{3-[1-(2,4-Difluoro-benzyl)-4-hydroxy-2-oxo-1,2,4a,5,6,7,8,8a-octahydro-quinolin-3-yl]-1,1-dioxo-1,4-dihydro-1λ^6-thieno[2,3-e][1,2,4]thiadiazin-7-ylmethyl}-methanesulfonamide]	0.1 to 1 µM
CS(=O)(=O)NCc1csc2c1S(=O)(=O)N=C(C1=C(O)C3CCCCC3N(Cc3ccc(F)c(Cl)c3)C1=O)N2 (racemic) [Example 119, (rac-cis)-N-{3-[1-(3-Chloro-4-fluoro-benzyl)-4-hydroxy-2-oxo-1,2,4a,5,6,7,8,8a-octahydro-quinolin-3-yl]-1,1-dioxo-1,4-dihydro-1λ^6-thieno[2,3-e][1,2,4]thiadiazin-7-ylmethyl}-methanesulfonamide]	0.1 to 1 µM
CS(=O)(=O)NCc1csc2c1S(=O)(=O)N=C(C1=C(O)C3CCCCCC3N(Cc3ccc(F)cc3)C1=O)N2 (racemic) [Example 120, (rac-cis)-N-{3-[1-(4-Fluoro-benzyl)-4-hydroxy-2-oxo-2,4a,5,6,7,8,9,9a-octahydro-1H-cyclohepta[b]pyridin-3-yl]-1,1-dioxo-1,4-dihydro-1λ^6-thieno[2,3-e][1,2,4]thiadiazin-7-ylmethyl}-methanesulfonamide]	0.02 to 0.1 µM
CS(=O)(=O)NCc1csc2c1S(=O)(=O)N=C(C1=C(O)C3CCCCCC3N(Cc3ccc(F)cc3Cl)C1=O)N2 (racemic) [Example 121, (rac-cis)-N-{3-[1-(2-Chloro-4-fluoro-benzyl)-4-hydroxy-2-oxo-2,4a,5,6,7,8,9,9a-octahydro-1H-cyclohepta[b]pyridin-3-yl]-1,1-dioxo-1,4-dihydro-1λ^6-thieno[2,3-e][1,2,4]thiadiazin-7-ylmethyl}-methanesulfonamide]	> 1 µM
CS(=O)(=O)NCc1csc2c1S(=O)(=O)N=C(C1=C(O)C3CCCCCC3N(Cc3ccc(F)cc3F)C1=O)N2 (racemic) [Example 122, (rac-cis)-N-{3-[1-(2,4-Difluoro-benzyl)-4-hydroxy-2-oxo-2,4a,5,6,7,8,9,9a-octahydro-1H-cyclohepta[b]pyridin-3-yl]-1,1-dioxo-1,4-dihydro-1λ^6-thieno[2,3-e][1,2,4]thiadiazin-7-ylmethyl}-methanesulfonamide]	> 1 µM
